Laboratory results from patent publication US20110152169A1, “SPARC ANTI-INFLAMMATORY ACTIVITY AND USES THEREOF” (priority 2008, published 2011).
Each block holds one molecule with its values, some of them ahead of it.

Tests used:
Type in all cases: cell-based, human
NF-κB promoter = NF-κB promoter luciferase reporter assay; details: SKOV3 and OVCAR3, concentration-dependent up to 5 nM
SKOV3 [1] = assay: Matrigel invasion assay
Experimental: (§1) The invasiveness of SKOV3 and OVCAR3 transduced or not with Ad-GFP or Ad-GFP-SPARC as described in Example 1, in response to MCP-1, was assessed as previously described (Said et al., Am J Pathol, 167: 1739-52 (2005)). 1×10^5 cells per […] in the presence and absence of MCP-lwere added to the upper chamber of polycarbonate inserts ([…] pore size, Corning Costar, Corning, N.Y.) coated on ice with Growth factor—reduced Matrigel (BD Biosciences, Bedford, Mass.) diluted 1:3 in SFM. In some experiments, cells were pretreated with MCP-1 antibody (25 µg/ml) or its isotype control (50 μg/ml) for 30 minutes before stimulation. The bottom chambers contained complete growth medium. […] The migrated cells were counted in six fields after staining with hemacolor 3 stain (SOURCE?), using an inverted microscope equipped with a DFC 320 digital camera (Leica Microsystems, Wetzlar, Germany) under 200× magnification.
(§2) The proliferation and invasiveness of SKOV3 and OVCAR3 cells, transduced or not with Ad-GFP and Ad-GFP-SPARC, in response to PGE2, was determined as described in Example 3. The results shown in FIG. 5 are expressed as the mean±SEM of three independent experiments performed in quadruplicate (proliferation) or triplicate (invasion). *P<0.05, compared to the matched WT cells or Ad-GFP transduced cells. **P<0.05, compared to NS control cells.

OVCAR3 [2] = assay: Matrigel invasion assay
Experimental: as §1, §2

SKOV3 [3] = assay: Proliferation, CellTiter96 (MTS)
Experimental: (§3) The proliferation of SKOV3 and OVCAR3 transduced or not with Ad-GFP or Ad-GFP-SPARC as described in Example 1, in response to MCP-1, was assessed using a commercially available CellTiter96 kit (Promega) according to the manufacturer' instructions. The number of proliferating cells was determined colorimetrically by measuring the absorbance at 590 nm (0D590) of the dissolved formazan product after the addition of 3 -(4,5 -dimethylthiazol-2-yl)-5-(3 -carboxymethoxyphenyl)-2-(4-sulfophenyl)-2H-tetrazolium (MTS) for 3 hours.
as §2

OVCAR3 [4] = assay: Proliferation, CellTiter96 (MTS)
Experimental: as §3, §2

uPA = uPA activity in conditioned medium, colorimetric assay; details: for inhibition of LPA-induced uPA activity: 24 hours
Experimental: uPA activity in CM of confluent monolayers (˜10^6 cells) of serum-starved SKOV3 and OVCAR3 was measured in WT cells stimulated for 24 hours with LPA (50 μM) in the presence and absence of SPARC (10 μg/ml). uPA activity in adenovirus-transduced SKOV3 and OVCAR3 stimulated or not with LPA, or cocultured with Meso301 monolayers, U937 macrophages (added in 0.22-μm transwell inserts), or in triple-culture systems was also measured. uPA activity in CM was measured using a commercially available colorimetric assay kit (Chemicon) according to the manufacturer's instructions. […] The results are mean±SEM of a representative of three independent experiments, each performed in duplicate. *P<0.05, compared to nonstimulated WT or Ad-GFP cells. **P<0.05, compared to matched WT or Ad-GFP condition. #P<0.05, compared to coculture of ovarian cancer cells with either Meso301 or U937 in two-cell culture systems.

MMP-2 and MMP-9 = assay: Gelatin zymography of conditioned media
Experimental: Subconfluent monolayers of ovarian cancer cells, transduced or not with Ad-GFP and Ad-GFP-SPARC, were grown in six-well plates alone or in coculture with mesothelial cell monolayers and serum-starved in SFM overnight. U937 macrophages (2×10^6 cells/ml SFM) were cultured in 0.22-μm transwell chambers (Corning, Costar) alone, in cocultures without direct cell-cell contact with ovarian cancer cells, or in triple cultures with ovarian cancer cells and mesothelial cells for an additional 24 hours. LPA (50 μM) or exogenous SPARC (20 μg/ml) (SOURCE?) was included in some experiments. Cell culture conditioned media (CM) were collected, cleared by centrifugation, and concentrated five-fold using Centricon centrifugal filters (Millipore, Bedford, Mass.). […] CM equivalent to 200 μg of ovarian cancer cells, and/or U937 cells was analyzed by gelatin zymography as described previously (Said et al., Am J Pathol, 167: 1739-52 (2005)).

MCP-1 = MCP-1 protein secreted in conditioned medium, ELISA; details: 50 μM LPA
Experimental: Ovarian cancer cell lines were transduced for 24 hours with adenovirus expressing GFP (Ad-GFP) or adenovirus expressing GFP and SPARC (Ad-GFP-SPARC) in complete growth medium at a multiplicity of infection of 15 to 25 as described previously (Said et al., Am J Pathol, 170: 1054-63 (2007)).
Confluent monolayers (−106 cells, serum starved overnight) of wild type (WT) human ovarian cancer cell lines SKOV3 or OVCAR3, were stimulated with 50 μM lysophosphatidic acid (LPA) for 24 hours in the presence and absence of SPARC (10 μg/ml). Similarly, adenovirus-transduced SKOV3 and OVCAR3 were stimulated with 50 [M LPA for 24 to 48 hours. Alternatively, adenovirus-transduced SKOV3 and OVCAR3 were seeded onto confluent monolayers or cocultured with Meso301 for 24 to 48 hours. MCP-1 protein secreted in the conditioned medium (CM) of SKOV3 and OVCAR3 was determined by ELISA using a commercially available kit (RayBioTech, Inc., Norcross, Ga.). Controls included cells that were not stimulated (NS) with LPA.

8-isoprostane = 8-isoprostane level in conditioned medium, enzyme immunoassay
Experimental: SKOV3 and OVCAR3 were treated as described in Example 6, and the level of 8-isoprostane was determined in the CM using a commercially available enzyme immunoassay kit (Cayman Inc.) according to the manufacturer's instructions.

PGE2 = PGE2 level in conditioned medium, enzyme immunoassay
Experimental: LPA (50 μM) or exogenous SPARC (20 μg/ml) (SOURCE?) was included in some experiments.
SKOV3 and OVCAR3 cells were treated as described in Example 6, and PGE2 level was determined in the CM using a commercially available enzyme immunoassay kit (Cayman Inc.) according to the manufacturer's instructions.

IL-6 = IL-6 in conditioned medium, ELISA; details: U937
Experimental: SKOV3 and OVCAR3 cells, transduced or not with Ad-GFP or Ad-GFP-SPARC, and U937 cells were cultured individually, in cocultures, or in triple cultures with Meso301 cells for twenty four hours, and the conditioned medium was assayed for IL-6 by ELISA as described in Example 1. The results shown in FIG. 3 represent the mean±SEM of one of three independent experiments, each performed in duplicate. *P<0.05, compared to matched WT or Ad-GFP. **P<0.05, compared to double cultures in the absence of mesothelial cells.

[5] = either cell line (SKOV3, OVCAR3)

- PGE2-induced NF-κB activation (NF-κB promoter): approximately three
Molecule: CCCCC[C@H](O)/C=C/[C@H]1[C@H](O)CC(=O)[C@@H]1C/C=C\CCCC(=O)O [PGE2, prostaglandin E2]
- proinvasive effect of PGE2 (SKOV3 [1]): concentration dependent
- proinvasive effect of PGE2 (OVCAR3 [2]): concentration dependent
- PGE2-stimulated proliferation (SKOV3 [3]): concentration dependent
- PGE2-stimulated proliferation (OVCAR3 [4]): concentration dependent

- increase in 8-isoprostane production by LPA stimulation (8-isoprostane; OVCAR): ~2.5 fold
- increase in 8-isoprostane production by LPA stimulation (8-isoprostane; SKOV3): ~2.2 fold
- increase in PGE2 production by LPA stimulation (PGE2; SKOV3 and OVCAR): 14 fold
Molecule: lysophosphatidic acid [LPA]
- LPA-induced increase in uPA activity (uPA; WT and Ad-GFP-transduced OVCAR3, LPA 50 μM): 4.5 fold
- LPA-induced increase in uPA activity (uPA; WT and Ad-GFP-transduced SKOV3, LPA 50 μM): 4 fold
- levels of active MMP-9 after LPA stimulation (MMP-2 and MMP-9; OVCAR3 CM, LPA 50 μM): significantly increased
- levels of pro- and active MMP-9 after LPA stimulation (MMP-2 and MMP-9; SKOV3 CM, LPA 50 μM): significantly increased
- MMP-2 and MMP-9 activity after LPA (MMP-2 and MMP-9; U937 CM, LPA 50 μM): significantly increased
- increase of MCP-1 production after LPA stimulation (MCP-1; SKOV3 and OVCAR3, 48 hours): nine

- suppression of LPA-induced 8-isoprostane production (8-isoprostane; [5]): up to 26%
- decrease of basal 8-isoprostane (ROS) production (8-isoprostane; serum starved SKOV3 and OVCAR3): 70%
- suppression of LPA-induced PGE2 production (PGE2; [5]): 40%
- decrease of baseline production of PGE2 (PGE2; serum-starved SKOV3 and OVCAR3): up to 30%
B1: Secreted protein acidic and rich in cysteine (protein, listed as Homo sapiens)
chain: APQQEALPDETEVVEETVAEVTEVSVGANPVQVEVGEFDDGAEETEEEVVAENPCQNHHCKHGKVCELDENNTPMCVCQDPTSCPAPIGEFEKVCSNDNKTFDSSCHFFATKCTLEGTKKGHKLHLDYIGPCKYIPPCLDSELTEFPLRMRDWLKNVLVTLYERDEDNNLLTEKQKLRVKKIHENEKRLEAGDHPVELLARDFEKNYNMYIFPVHWQFGQLDQHPIDGYLSHTELAPLRAPLIPMEHCTTRFFETCDLDNDKYIALDEWAGCFGIKQKDIDKDLVI
notes: matrix-associated protein added to cultures at 10 or 20 μg/ml
- attenuation of constitutive uPA activity in CM (uPA; OVCAR3): 29%
- inhibition of LPA-induced uPA activity (uPA; OVCAR3, LPA 50 μM): 36%
- attenuation of constitutive uPA activity in CM (uPA; SKOV3): 40%
- inhibition of LPA-induced uPA activity (uPA; SKOV3, LPA 50 μM): 76%
- LPA-induced activity of MMP-2 and MMP-9 (MMP-2 and MMP-9; U937 CM, SPARC 20 μg/ml): markedly decreased
- inhibition of LPA-induced MCP-1 production (MCP-1; OVCAR3, 24 hours): 59%
- inhibition of LPA-induced MCP-1 production (MCP-1; OVCAR3, 48 hours): 30%
- inhibition of LPA-induced MCP-1 production (MCP-1; SKOV3, 24 hours): 54%
- inhibition of LPA-induced MCP-1 production (MCP-1; SKOV3, 48 hours): 43%
- effect on IL-6 levels (IL-6): Neither exogenous SPARC nor overexpression of SPARC in U937 had any effect
